How the values were obtained:
Cytochrome P450 2D6 [1] = biological target: T1, Cytochrome P450 2D6 (Homo sapiens, UniProt P10635); experiment: Inhibitory effect on Bufuralol 1'-hydroxylation by human liver microsomes (Ki = apparent inhibition constant); format: ADME, Microsome
Cytochrome P450 2D6 [2] = biological target: T1, Cytochrome P450 2D6
Cytochrome P450 2D6 [3] = biological target: T1, Cytochrome P450 2D6; remark: listed apart in the source
Cytochrome P450 2D6 [4] = biological target: T1, Cytochrome P450 2D6; remark: listed apart in the source
Cytochrome P450 2D6 [5] = biological target: T1, Cytochrome P450 2D6; experiment: Inhibition of partially purified cytochrome P450 2D6 1'-hydroxybufuralol formation
Cytochrome P450 2D6 [6] = biological target: T1, Cytochrome P450 2D6; remark: listed apart in the source
Cytochrome P450 2D6 [7] = biological target: T1, Cytochrome P450 2D6; experiment: Apparent inhibitory constant (Ki) for Bufuralol 1'-hydroxylation by human liver microsomes; format: ADME, Microsome
Cytochrome P450 2D6 [8] = biological target: T1, Cytochrome P450 2D6; remark: listed apart in the source
Cytochrome P450 2D6 [9] = biological target: T1, Cytochrome P450 2D6; experiment: Inhibitory constant for cytochrome P450 2D6; format: ADME
Cytochrome P450 2D6 [10] = biological target: T1, Cytochrome P450 2D6; remark: listed apart in the source

T1 sequence (P10635 whole entry): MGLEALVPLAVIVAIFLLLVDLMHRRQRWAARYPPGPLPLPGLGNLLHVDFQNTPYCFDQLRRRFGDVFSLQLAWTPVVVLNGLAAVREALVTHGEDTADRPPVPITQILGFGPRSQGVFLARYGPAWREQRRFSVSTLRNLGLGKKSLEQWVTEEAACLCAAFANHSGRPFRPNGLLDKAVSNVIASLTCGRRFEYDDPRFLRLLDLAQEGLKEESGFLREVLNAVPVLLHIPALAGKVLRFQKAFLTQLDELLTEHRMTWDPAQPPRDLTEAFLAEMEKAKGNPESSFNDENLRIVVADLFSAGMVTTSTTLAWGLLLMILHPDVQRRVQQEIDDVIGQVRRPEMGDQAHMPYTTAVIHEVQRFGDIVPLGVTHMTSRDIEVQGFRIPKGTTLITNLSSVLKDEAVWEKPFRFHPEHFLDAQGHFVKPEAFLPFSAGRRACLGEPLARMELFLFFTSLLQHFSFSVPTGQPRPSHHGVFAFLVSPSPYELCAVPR

Work on `C=CC1C[N+]2(c3ccccc3)CCC1CC2C(O)c1ccnc2ccc(OC)cc12` (centres undefined) yielded a Ki (Cytochrome P450 2D6 [1]) of 25 µM.

Work on `COc1ccc2[nH]cc(CCO)c2c1` yielded a Ki (Cytochrome P450 2D6 [1]) of 100 µM.

For `COc1ccc2ncccc2c1`, the Ki (Cytochrome P450 2D6 [1]) was greater than 1000 µM.

`CC1OC=C(CO)[C@H]2C[C@H]3c4[nH]c5ccccc5c4CCN3CC12` (some centres undefined) showed a Ki (Cytochrome P450 2D6 [1]) of 1.1 µM.

With `C=CC1CN2CCC1CC2C(=O)c1ccnc2ccc(OC)cc12` (centres undefined) the Ki (Cytochrome P450 2D6 [1]) was 0.72 µM.

`C=CC1CN2CCC1C[C@H]2[C@H](O)c1ccnc2ccc(Cl)cc12` (some centres undefined) showed a Ki (Cytochrome P450 2D6 [1]) of 3.5 µM.

Molecule `COC(=O)C1=CO[C@H](C)[C@H]2CN3CCc4c([nH]c5ccccc45)[C@@H]3C[C@H]12` has a Ki (Cytochrome P450 2D6 [1]) of 0.017 µM.

`CCC1CN2CCC1CC2[C@H](O)c1ccnc2ccccc12` (some centres undefined) gave a Ki (Cytochrome P450 2D6 [2]) of 8 µM, a Ki (Cytochrome P450 2D6 [3]) of 24 µM and a Ki (Cytochrome P450 2D6 [4]) of 9.6 µM.

For `C=CC1CN2CCC1C[C@@H]2[C@@H](O)c1ccnc2ccc(Cl)cc12` (some centres undefined), the Ki (Cytochrome P450 2D6 [1]) was 0.52 µM.

Work on `COC(=O)C1=CNC(C)C2CN3CCc4c([nH]c5ccccc45)[C@@H]3C[C@H]12` (some centres undefined) yielded a Ki (Cytochrome P450 2D6 [1]) of 2.9 µM.

With `O=C(O)[C@H]1[C@H]2C[C@H]3c4[nH]c5ccccc5c4CCN3C[C@@H]2CC[C@H]1O` the Ki (Cytochrome P450 2D6 [1]) was 6.3 µM.

`COC(=O)C1=CO[C@@H](C)[C@H]2C[n+]3ccc4c([nH]c5ccccc54)c3C[C@H]12` was tested, and the Ki (Cytochrome P450 2D6 [1]) was 2.2 µM.

`CCC1CN2CCC1CC2C(O)c1ccnc2ccccc12` (centres undefined) was tested, and the Ki (Cytochrome P450 2D6 [2]) was 1.6 µM, the Ki (Cytochrome P450 2D6 [3]) was 3.2 µM and the Ki (Cytochrome P450 2D6 [4]) was 2.8 µM.

With `C=CC1CN2CCC1C[C@@H]2[C@@H](O)c1ccnc2ccccc12` (stereo in doubt; 9b) the Ki (Cytochrome P450 2D6 [5]) was 2.6 µM, the Ki (Cytochrome P450 2D6 [2]) was 3.5 µM and the Ki (Cytochrome P450 2D6 [3]) was 5.4 µM. For the same molecule, the Ki (Cytochrome P450 2D6 [6]) was 1 µM, the Ki (Cytochrome P450 2D6 [4]) was 3.5 µM and the Ki (Cytochrome P450 2D6 [7]) was 3.5 µM.

Molecule `C=CC1CN2CCC1C[C@@H]2[C@@H](O)c1ccnc2ccccc12` (stereo in doubt; 10b) has a Ki (Cytochrome P450 2D6 [5]) of 25 µM, a Ki (Cytochrome P450 2D6 [2]) of 7.5 µM and a Ki (Cytochrome P450 2D6 [3]) of 16 µM. For the same molecule, the Ki (Cytochrome P450 2D6 [8]) was 9.3 µM, the Ki (Cytochrome P450 2D6 [4]) was 7.3 µM and the Ki (Cytochrome P450 2D6 [1]) was 7.5 µM.

With `COC(=O)C1=CO[C@@H](C)[C@H]2C=[N+]3CCc4c([nH]c5ccccc45)[C@@H]3C[C@H]12` [CATHENAMINE] the Ki (Cytochrome P450 2D6 [1]) was 3.2 µM.

Molecule `CCC1CN2CCC1CC2[C@@H](O)c1ccnc2ccc(OC)cc12` (some centres undefined) [DIHYDROQUINIDINE] has a Ki (Cytochrome P450 2D6 [1]) of 0.066 µM.

Work on `Cc1nccc2c1[nH]c1ccccc12` [HARMAN] yielded a Ki (Cytochrome P450 2D6 [1]) of 86 µM.

`CC[C@H]1CN2CC[C@H]1C[C@H]2[C@H](O)c1ccnc2ccc(OC)cc12` [HYDROQUININE] showed a Ki (Cytochrome P450 2D6 [1]) of 4 µM.

For `CN1[C@@H](CC(=O)c2ccccc2)CCC[C@H]1C[C@H](O)c1ccccc1` [LOBELINE], the Ki (Cytochrome P450 2D6 [9]) was 0.12 µM.

`CC(C)N1CCC(c2ccccc2)(c2ccccc2)CC1` [PRODIPINE] was tested, and the Ki (Cytochrome P450 2D6 [9]) was 0.0048 µM.

`c1ccc2c(c1)[n-]c1c3[n+](ccc12)CC1CCCCC1C3` (centres undefined) [SEMPERVIRINE] was tested, and the Ki (Cytochrome P450 2D6 [1]) was 9.7 µM.

`COC(=O)C1=CO[C@@H](C)[C@@H]2CN3CCc4c([nH]c5ccccc45)[C@@H]3C[C@H]12` [TETRAHYDROALSTONINE] showed a Ki (Cytochrome P450 2D6 [1]) of 1.1 µM.

Work on RAUWOLFIA SERPENTINA yielded a Ki (Cytochrome P450 2D6 [7]) of 0.0046 µM and a Ki (Cytochrome P450 2D6 [10]) of 0.0046 µM.
